Results published in ChEMBL document CHEMBL2034870, “Activity landscape modeling of PPAR ligands with dual-activity difference maps” (Bioorg Med Chem, 2012).

Experiments:
[1] = target: T1, Peroxisome proliferator-activated receptor delta (Homo sapiens, UniProt Q03181); format: functional
T1 sequence (Q03181 whole entry): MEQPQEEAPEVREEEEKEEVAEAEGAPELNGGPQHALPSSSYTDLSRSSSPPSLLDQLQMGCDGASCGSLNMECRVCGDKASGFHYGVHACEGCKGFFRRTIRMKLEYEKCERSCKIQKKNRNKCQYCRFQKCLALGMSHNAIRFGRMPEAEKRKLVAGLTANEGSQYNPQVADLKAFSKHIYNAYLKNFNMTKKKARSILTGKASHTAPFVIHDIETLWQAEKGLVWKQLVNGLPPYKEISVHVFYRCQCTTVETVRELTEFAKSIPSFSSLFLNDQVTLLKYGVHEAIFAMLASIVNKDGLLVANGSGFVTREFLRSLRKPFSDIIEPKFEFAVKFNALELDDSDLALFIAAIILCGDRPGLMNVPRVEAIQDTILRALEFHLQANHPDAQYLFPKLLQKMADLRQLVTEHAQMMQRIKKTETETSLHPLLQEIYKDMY

[2] = target: T2, Peroxisome proliferator-activated receptor alpha (Homo sapiens, UniProt Q07869); format: functional
T2 sequence (Q07869 whole entry): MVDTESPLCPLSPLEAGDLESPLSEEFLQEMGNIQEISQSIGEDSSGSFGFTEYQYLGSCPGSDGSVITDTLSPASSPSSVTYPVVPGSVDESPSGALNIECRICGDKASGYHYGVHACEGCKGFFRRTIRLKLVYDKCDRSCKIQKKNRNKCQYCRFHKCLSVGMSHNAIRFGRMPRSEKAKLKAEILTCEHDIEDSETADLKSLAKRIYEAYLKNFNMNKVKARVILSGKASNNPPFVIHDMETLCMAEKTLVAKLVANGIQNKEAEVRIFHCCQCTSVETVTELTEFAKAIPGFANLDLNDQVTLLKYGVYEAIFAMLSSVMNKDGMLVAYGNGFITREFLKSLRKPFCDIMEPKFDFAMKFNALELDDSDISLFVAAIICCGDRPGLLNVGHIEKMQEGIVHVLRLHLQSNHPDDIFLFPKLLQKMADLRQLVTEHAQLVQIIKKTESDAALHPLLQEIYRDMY

| Compound | IC50 ([1]; read-out: pIC50 (converted)) [nM] | IC50 ([2]; read-out: pIC50 (converted)) [nM] | IC50 ([1]; read-out: IC50) [nM] | IC50 ([2]; read-out: IC50) [nM] |
| --- | --- | --- | --- | --- |
| CCCc1cc(-c2noc3ccccc23)ccc1OCCCOc1cccc([C@@H]2SC(=O)NC2=O)c1 | 140 | – | – | – |
| CCCc1cc(Oc2ccc(O)cc2)ccc1OCCCOc1cccc([C@@H]2SC(=O)NC2=O)c1 | – | – | 3800 | – |
| CCCc1cc(C2CCCC2)ccc1OCCCOc1cccc([C@H]2OC(=O)NC2=O)c1 | 3850 | – | – | – |
| O=C(O)[C@@H]1CCc2ccc(OCCCOc3ccc(OCC(F)(F)F)cc3Cl)cc2O1 | – | – | 6900 | 810 |
| O=C1NC(=O)[C@H](c2cccc(OCCCOc3ccc(Oc4ccccc4)cc3)c2)S1 | 190 | – | – | – |
| CCCC[C@@](Cc1ccc(OCCc2nc(-c3ccccc3)oc2C)cc1)(Oc1ccccc1)C(=O)O | – | – | 7230 | 1850 |
| CCCc1cc(-c2ccccc2)ccc1OCCCOc1cccc([C@@H]2OC(=O)NC2=O)c1 | 1510 | – | – | – |
| CCCc1c(OCCCSc2ccc(CC(=O)O)cc2Cl)ccc(/C(CC)=N\O)c1O | 10 | 100 | – | – |
| CCCn1c(CCCc2ccc(OC(C)(C)C(=O)O)cc2)nn([C@H](C)c2ccccc2)c1=O | 1500 | 220 | – | – |
| CCCc1cc(OC2CCCC2)ccc1OCCCOc1cccc([C@@H]2SC(=O)NC2=O)c1 | 920 | – | – | – |
| CCCc1cc(C(=O)c2ccccc2)ccc1OCCCOc1cccc([C@@H]2SC(=O)NC2=O)c1 | 170 | – | – | – |
| CC(C)Cc1cc(Oc2ccccc2)ccc1OCCCOc1ccc([C@@H]2SC(=O)NC2=O)cc1 | – | – | 160 | 340 |

The remaining lines, values ahead:

| IC50 ([1]; read-out: pIC50 (converted)) [nM] | IC50 ([2]; read-out: pIC50 (converted)) [nM] | IC50 ([1]; read-out: IC50) [nM] | IC50 ([2]; read-out: IC50) [nM] | Compound |
| --- | --- | --- | --- | --- |
| 5070 | 473 | – | – | CC[C@@](Cc1ccc(OCCc2nc(-c3ccccc3)oc2C)cc1)(Oc1ccccc1)C(=O)O |
| 3500 | 125 | – | – | CCO[C@@H](Cc1cccc2c1ccn2Cc1nc(-c2ccccc2)oc1C)C(=O)O |
| – | – | 7040 | 1110 | Cc1oc(-c2ccccc2)nc1CCOc1ccc(C[C@H](Oc2ccccc2)C(=O)O)cc1 |
| 891 | 61 | – | – | Cc1oc(-c2ccc(C(F)(F)F)cc2)nc1Cn1ccc2cc(C[C@@H](OC(C)C)C(=O)O)ccc21 |
| – | 40 | – | – | CCCO[C@H](Cc1ccc2c(ccn2Cc2nc(-c3ccc(C(F)(F)F)cc3)oc2C)c1)C(=O)O |
| 372 | 352 | – | – | CCO[C@H](Cc1ccc2c(c1)cc(C)n2Cc1nc(-c2ccc(C(F)(F)F)cc2)oc1C)C(=O)O |
